# The supplement of paper PMC10307832
# Legend:
# Experiment in all cases: relative viability (nuclei count vs DMSO), 5 days (fraction); higher = more cells survive
# CAL-12T = tested on: CAL-12T
# In short: (§1)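 Relative viability equals treated-well nuclei counts divided by vehicle-well nuclei counts. Counts came from 4× images of lung cancer cell lines grown in 1536-well plates for 5 days after pin-tool dosing on the day after seeding. Dosing used one drug alone or a fixed anchor-drug dose plus five library-drug doses (not always all listed) in √10 steps, and values are medians of duplicate plates.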
# ChaGo-K-1 = tested on: ChaGo-K-1
# In short: as §1
# HCC-366 = tested on: HCC-366
# In short: as §1
# HCC-78 = tested on: HCC-78
# In short: as §1
# LC-2-ad = tested on: LC-2-ad
# In short: as §1
# LOU-NH91 = tested on: LOU-NH91
# In short: as §1
# LU99A = tested on: LU99A
# In short: as §1
# NCI-H1395 = tested on: NCI-H1395
# In short: as §1
# NCI-H1651 = tested on: NCI-H1651
# In short: as §1
# NCI-H1755 = tested on: NCI-H1755
# In short: as §1
# NCI-H1793 = tested on: NCI-H1793
# In short: as §1
# NCI-H1944 = tested on: NCI-H1944
# In short: as §1
# NCI-H2087 = tested on: NCI-H2087
# In short: as §1
# NCI-H2170 = tested on: NCI-H2170
# In short: as §1
# NCI-H2228 = tested on: NCI-H2228
# In short: as §1
# NCI-H2405 = tested on: NCI-H2405
# In short: as §1
# NCI-H3122 = tested on: NCI-H3122
# In short: as §1
# NCI-H460 = tested on: NCI-H460
# In short: as §1
# PC-3 [JPC-3] = tested on: PC-3 [JPC-3]
# In short: as §1
# RERF-LC-KJ = tested on: RERF-LC-KJ
# In short: as §1
# UMC-11 = tested on: UMC-11
# In short: as §1
compound,measurement,setting,value
O=c1cc(N2CCOCC2)oc2c(-c3cccc4c3sc3ccccc34)cccc12 + CC1(C)CCC(c2ccc(Cl)cc2)=C(CN2CCN(c3ccc(C(=O)NS(=O)(=O)c4ccc(N[C@H](CCN5CCOCC5)CSc5ccccc5)c(S(=O)(=O)C(F)(F)F)c4)cc3)CC2)C1 [Navitoclax] (partner 0.5 µM),relative viability,CAL-12T; first compound 0.01 µM,1.47
same,relative viability,CAL-12T; first compound 0.03162 µM,1.17
same,relative viability,CAL-12T; first compound 0.1 µM,1.36
same,relative viability,CAL-12T; first compound 0.3162 µM,1.45
same,relative viability,CAL-12T; first compound 1 µM,1.16
same,relative viability,ChaGo-K-1; first compound 0.01 µM,1.04
same,relative viability,ChaGo-K-1; first compound 0.03162 µM,0.927
same,relative viability,ChaGo-K-1; first compound 0.1 µM,0.729
same,relative viability,ChaGo-K-1; first compound 0.3162 µM,1.06
same,relative viability,ChaGo-K-1; first compound 1 µM,0.971
same,relative viability,HCC-366; first compound 0.01 µM,1.11
same,relative viability,HCC-366; first compound 0.03162 µM,1.1
same,relative viability,HCC-366; first compound 0.1 µM,1.08
same,relative viability,HCC-366; first compound 0.3162 µM,1
same,relative viability,HCC-366; first compound 1 µM,1.04
same,relative viability,HCC-78; first compound 0.01 µM,0.742
same,relative viability,HCC-78; first compound 0.03162 µM,0.831
same,relative viability,HCC-78; first compound 0.1 µM,0.756
same,relative viability,HCC-78; first compound 0.3162 µM,0.755
same,relative viability,HCC-78; first compound 1 µM,0.843
same,relative viability,LC-2-ad; first compound 0.01 µM,0.646
same,relative viability,LC-2-ad; first compound 0.1 µM,0.543
same,relative viability,LC-2-ad; first compound 0.3162 µM,0.546
same,relative viability,LC-2-ad; first compound 1 µM,0.386
same,relative viability,LOU-NH91; first compound 0.01 µM,0.637
same,relative viability,LOU-NH91; first compound 0.03162 µM,0.631
same,relative viability,LOU-NH91; first compound 0.1 µM,0.695
same,relative viability,LOU-NH91; first compound 0.3162 µM,0.747
same,relative viability,LOU-NH91; first compound 1 µM,0.689
same,relative viability,LU99A; first compound 0.01 µM,0.887
same,relative viability,LU99A; first compound 0.03162 µM,0.955
same,relative viability,LU99A; first compound 0.1 µM,0.884
same,relative viability,LU99A; first compound 0.3162 µM,0.773
same,relative viability,LU99A; first compound 1 µM,0.898
same,relative viability,NCI-H1395; first compound 0.01 µM,1.08
same,relative viability,NCI-H1395; first compound 0.03162 µM,1.16
same,relative viability,NCI-H1395; first compound 0.1 µM,1.38
same,relative viability,NCI-H1395; first compound 0.3162 µM,1.17
same,relative viability,NCI-H1395; first compound 1 µM,1.23
same,relative viability,NCI-H1651; first compound 0.01 µM,1.07
same,relative viability,NCI-H1651; first compound 0.03162 µM,0.997
same,relative viability,NCI-H1651; first compound 0.1 µM,1.01
same,relative viability,NCI-H1651; first compound 0.3162 µM,0.991
same,relative viability,NCI-H1651; first compound 1 µM,0.927
same,relative viability,NCI-H1755; first compound 0.01 µM,0.983
same,relative viability,NCI-H1755; first compound 0.03162 µM,0.949
same,relative viability,NCI-H1755; first compound 0.1 µM,1.02
same,relative viability,NCI-H1755; first compound 0.3162 µM,0.972
same,relative viability,NCI-H1755; first compound 1 µM,0.999
same,relative viability,NCI-H1793; first compound 0.01 µM,0.471
same,relative viability,NCI-H1793; first compound 0.03162 µM,0.468
same,relative viability,NCI-H1793; first compound 0.1 µM,0.54
same,relative viability,NCI-H1793; first compound 0.3162 µM,0.367
same,relative viability,NCI-H1793; first compound 1 µM,0.382
same,relative viability,NCI-H1944; first compound 0.01 µM,1.03
same,relative viability,NCI-H1944; first compound 0.03162 µM,1.1
same,relative viability,NCI-H1944; first compound 0.1 µM,1.07
same,relative viability,NCI-H1944; first compound 0.3162 µM,1.09
same,relative viability,NCI-H1944; first compound 1 µM,1.05
same,relative viability,NCI-H2087; first compound 0.01 µM,0.929
same,relative viability,NCI-H2087; first compound 0.03162 µM,0.904
same,relative viability,NCI-H2087; first compound 0.1 µM,1.01
same,relative viability,NCI-H2087; first compound 0.3162 µM,0.919
same,relative viability,NCI-H2087; first compound 1 µM,0.857
same,relative viability,NCI-H2170; first compound 0.01 µM,0.69
same,relative viability,NCI-H2170; first compound 0.03162 µM,0.741
same,relative viability,NCI-H2170; first compound 0.1 µM,0.599
same,relative viability,NCI-H2170; first compound 0.3162 µM,0.62
same,relative viability,NCI-H2170; first compound 1 µM,0.605
same,relative viability,NCI-H2228; first compound 0.03162 µM,0.895
same,relative viability,NCI-H2228; first compound 0.1 µM,1.16
same,relative viability,NCI-H2228; first compound 0.3162 µM,0.897
same,relative viability,NCI-H2228; first compound 1 µM,1.19
same,relative viability,NCI-H2405; first compound 0.01 µM,0.837
same,relative viability,NCI-H2405; first compound 0.03162 µM,1.01
same,relative viability,NCI-H2405; first compound 0.1 µM,0.838
same,relative viability,NCI-H2405; first compound 0.3162 µM,0.811
same,relative viability,NCI-H2405; first compound 1 µM,0.95
same,relative viability,NCI-H3122; first compound 0.01 µM,1.02
same,relative viability,NCI-H3122; first compound 0.03162 µM,0.981
same,relative viability,NCI-H3122; first compound 0.1 µM,1.02
same,relative viability,NCI-H3122; first compound 0.3162 µM,0.966
same,relative viability,NCI-H3122; first compound 1 µM,0.985
same,relative viability,NCI-H460; first compound 0.01 µM,1.06
same,relative viability,NCI-H460; first compound 0.03162 µM,1.07
same,relative viability,NCI-H460; first compound 0.1 µM,1.28
same,relative viability,NCI-H460; first compound 0.3162 µM,1.04
same,relative viability,NCI-H460; first compound 1 µM,1.12
same,relative viability,PC-3 [JPC-3]; first compound 0.01 µM,0.824
same,relative viability,PC-3 [JPC-3]; first compound 0.03162 µM,0.784
same,relative viability,PC-3 [JPC-3]; first compound 0.1 µM,0.795
same,relative viability,PC-3 [JPC-3]; first compound 0.3162 µM,0.783
same,relative viability,PC-3 [JPC-3]; first compound 1 µM,0.777
same,relative viability,RERF-LC-KJ; first compound 0.01 µM,0.926
same,relative viability,RERF-LC-KJ; first compound 0.03162 µM,1.2
same,relative viability,RERF-LC-KJ; first compound 0.1 µM,0.98
same,relative viability,RERF-LC-KJ; first compound 0.3162 µM,0.85
same,relative viability,RERF-LC-KJ; first compound 1 µM,0.974
same,relative viability,UMC-11; first compound 0.01 µM,0.302
same,relative viability,UMC-11; first compound 0.03162 µM,0.339
same,relative viability,UMC-11; first compound 0.1 µM,0.255
same,relative viability,UMC-11; first compound 0.3162 µM,0.333
same,relative viability,UMC-11; first compound 1 µM,0.343
